Experimental data as given in ChEMBL document CHEMBL5352495, “Development of novel pyrazole, imidazo[1,2-b]pyrazole, and pyrazolo[1,5-a]pyrimidine derivatives as a new class of COX-2 inhibitors with immunomodulatory potential” (Eur J Med Chem, 2023).

What was measured:
[1] = molecular target: T1, Prostaglandin G/H synthase 2 (Homo sapiens, UniProt P35354)
T1 sequence (P35354 whole entry): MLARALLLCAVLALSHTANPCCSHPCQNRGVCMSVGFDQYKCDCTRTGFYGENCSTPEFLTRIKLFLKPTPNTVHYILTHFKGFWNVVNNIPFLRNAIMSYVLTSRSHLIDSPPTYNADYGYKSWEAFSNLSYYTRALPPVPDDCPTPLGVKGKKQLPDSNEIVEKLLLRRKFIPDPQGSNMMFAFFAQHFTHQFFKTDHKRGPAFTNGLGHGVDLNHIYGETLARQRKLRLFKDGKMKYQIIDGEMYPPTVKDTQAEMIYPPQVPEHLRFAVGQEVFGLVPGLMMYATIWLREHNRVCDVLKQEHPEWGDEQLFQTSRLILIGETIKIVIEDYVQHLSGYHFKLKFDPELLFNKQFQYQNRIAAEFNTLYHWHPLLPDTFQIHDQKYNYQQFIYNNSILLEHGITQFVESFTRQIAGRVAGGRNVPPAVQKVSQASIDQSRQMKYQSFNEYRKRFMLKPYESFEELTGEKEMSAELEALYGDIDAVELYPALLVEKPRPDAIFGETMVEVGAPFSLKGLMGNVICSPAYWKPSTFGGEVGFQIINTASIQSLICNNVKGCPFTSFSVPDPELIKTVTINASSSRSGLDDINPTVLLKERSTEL
Description: Inhibition of COX-2 (unknown origin) incubated for 5 to 10 mins by fluorometric analysis

[2] = test system: RAW264.7; test: Anti-inflammatory activity against LPS-stimulated mouse RAW264.7 cells assessed as inhibition of IL-6 expression at 10 ug by qRT-PCR analysis relative to control; assay type: functional; parameters: scale not given: the % may be the effect or the level left; conditions: dose 10 µg
[3] = test system: RAW264.7; test: Anti-inflammatory activity against LPS-stimulated mouse RAW264.7 cells assessed as inhibition of TNF alpha expression at 10 ug by qRT-PCR analysis relative to control; assay type: functional; parameters: scale not given: the % may be the effect or the level left; conditions: dose 10 µg

SMILES | IC50 [1] [µM] | Activity [2] [%] | Activity [3] [%]
COC(=O)c1cc(=O)n2nc(N)c(/N=N/c3ccc(O)cc3)c2[nH]1 | 67.5 | – | –
CC1=Nc2c(/N=N/c3ccc(O)cc3)c(N)nn2C1=O | 295 | – | –
CCOC(=O)C1=Nc2c(/N=N/c3ccc(O)cc3)c(N)nn2C1=O | 79.3 | – | –
CCOC(=O)CC(=O)Nc1[nH]nc(N)c1/N=N/c1ccc(O)cc1 | 125 | – | –
Nc1n[nH]c(N=c2c(=O)c3ccccc3c2=O)c1/N=N/c1ccc(O)cc1 | 61.4 | – | –
N#Cc1c(-c2ccccc2Cl)nc2c(/N=N/c3ccc(O)cc3)c(N)nn2c1N | 84.8 | – | –
Cc1ccc(-c2cc(C(F)(F)F)nn2-c2ccc(S(N)(=O)=O)cc2)cc1 [CELECOXIB] | – | 76.8 | 72.7

More lines, main results first:

IC50 [1] [µM] | SMILES | Activity [2] [%] | Activity [3] [%]
3.37 | Nc1nn2c(-c3cccs3)cc(-c3cccs3)nc2c1/N=N/c1ccc(O)cc1 | 70.3 | 59.2
15.9 | CC(=O)Nc1nn2c(NC(C)=O)cc(=O)[nH]c2c1/N=N/c1ccc(O)cc1 | – | –
5.68 | Cc1cc(=O)n2nc(N)c(/N=N/c3ccc(O)cc3)c2[nH]1 | 65.8 | 63.1
21.1 | COc1ccc(-c2nc3c(/N=N/c4ccc(O)cc4)c(N)nn3c(N)c2C#N)cc1 | – | –
36.5 | Nc1n[nH]c(/N=C2/C(=O)Nc3ccc(S(=O)(=O)N4CCCC4)cc32)c1/N=N/c1ccc(O)cc1 | – | –
46.3 | Cc1cc(C)n2nc(N)c(/N=N/c3ccc(O)cc3)c2n1 | – | –
